Experiments:
Type in all cases: in vivo
Echinochloa crus-galli [1] = experiment: Test Example 1: herbicidal effect test by soil treatment in paddy field; conditions: 120 g/10a, paddy soil treatment just after sowing, 14 days after treatment
How it was run: (§1)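 Pre-emergence paddy soil treatment: diluted emulsifiable concentrate, 120 g active ingredient/10 are, applied dropwise into ~3 cm flood water immediately post-sowing. Two replicates; dry-weight-based suppression % vs untreated, day 14, glasshouse.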

Lindernia pyxidaria [2] = experiment: as above; conditions: 120 g/10a, paddy soil treatment just after sowing, 14 days after treatment
How it was run: as §1

Monochoria vaginalis [3] = experiment: as above; conditions: 120 g/10a, paddy soil treatment just after sowing, 14 days after treatment
How it was run: as §1

Scirpus juncoides [4] = experiment: as above; conditions: 120 g/10a, paddy soil treatment just after sowing, 14 days after treatment
How it was run: as §1

Echinochloa crus-galli [5] = experiment: Test Example 2: herbicidal effect test by treatment during growing period in paddy field; conditions: treatment 7 days after sowing, 120 g/10a, evaluated 14 days after treatment
How it was run: (§2)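 Read-out is weed suppression (%), 1 − mean dry weight treated/untreated ×100, taken 14 days after treatment with duplicate plots. Treatment: water-diluted emulsifiable concentrate added dropwise to flooded paddy-soil pots 7 days post-sowing at 120 g active ingredient per 10 are.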

Lindernia pyxidaria [6] = experiment: as above; conditions: treatment 7 days after sowing, 120 g/10a, evaluated 14 days after treatment
How it was run: as §2

Monochoria vaginalis [7] = experiment: as above; conditions: treatment 7 days after sowing, 120 g/10a, evaluated 14 days after treatment
How it was run: as §2

Scirpus juncoides [8] = experiment: as above; conditions: treatment 7 days after sowing, 120 g/10a, evaluated 14 days after treatment
How it was run: as §2

Amaranthus viridis [9] = experiment: Test Example 3: herbicidal effect test by soil treatment in upland field; conditions: upland field soil treatment 1 day after sowing; 120 g/10a; evaluated 14 days after treatment
Description: (§3) This test was performed with two replications per one formulation concentration plot, and 14 days after the formulation treatments, the weed suppression rate (%) was determined according to the following equation (Math. 1). Weed suppression rate (%)=(1−an average dry weight (g) of plants in treated plots/an average dry weight (g) of plants in untreated plots)×100 [Math. 1]
(§4) A pot having a size of 36 cm^2 was filled with field soil (alluvial soil) and after uniformly mixing the soil of the surface layer of 1 cm with 20 grains of each weed seed of crabgrass, Echinochloa crus-galli, Chenopodium album and Amaranthus viridis, the surface layer was pressed lightly. One day after the sowing, an emulsifiable concentrate prepared according to Formulation Example 5 by using the compound shown in Table 7 below was diluted with water, and the water-diluted formulation was sprayed on the soil surface at a ratio of 100 liter per 10 are. The application rate of the active ingredient, by conversion, corresponded to 120 g per 10 are. Fourteen days after the formulation treatment, the herbicidal effect was evaluated by the same criteria as in Test Example 1.

Chenopodium album [10] = experiment: as above; conditions: upland field soil treatment 1 day after sowing; 120 g/10a; evaluated 14 days after treatment
Description: as §3, §4

Echinochloa crus-galli [11] = experiment: as above; conditions: upland field soil treatment 1 day after sowing; 120 g/10a; evaluated 14 days after treatment
Description: as §3, §4

crabgrass [12] = experiment: as above; conditions: upland field soil treatment 1 day after sowing; 120 g/10a; evaluated 14 days after treatment
Description: as §3, §4

Amaranthus viridis [13] = experiment: Test Example 4: herbicidal effect test by foliage treatment in upland field; conditions: upland field foliage treatment 7 days after sowing; 120 g/10a; evaluated 14 days after treatment
Description: as §3
as §4, with “Seven days” for “One day”, “8” for “7”

Chenopodium album [14] = experiment: as above; conditions: upland field foliage treatment 7 days after sowing; 120 g/10a; evaluated 14 days after treatment
Description: as §3
as §4, with “Seven days” for “One day”, “8” for “7”

Echinochloa crus-galli [15] = experiment: as above; conditions: upland field foliage treatment 7 days after sowing; 120 g/10a; evaluated 14 days after treatment
Description: as §3
as §4, with “Seven days” for “One day”, “8” for “7”

crabgrass [16] = experiment: as above; conditions: upland field foliage treatment 7 days after sowing; 120 g/10a; evaluated 14 days after treatment
Description: as §3
as §4, with “Seven days” for “One day”, “8” for “7”

Row | Compound | weed suppression rate, Echinochloa crus-galli (Echinochloa crus-galli [1]) | weed suppression rate, Lindemia pyxidaria (Lindernia pyxidaria [2]) | weed suppression rate, Monochoria vaginalis (Monochoria vaginalis [3]) | weed suppression rate, Scirpus juncoides (Scirpus juncoides [4]) | weed suppression rate, Echinochloa crus-galli (Echinochloa crus-galli [5]) | weed suppression rate, Lindemia pyxidaria (Lindernia pyxidaria [6]) | weed suppression rate, Monochoria vaginalis (Monochoria vaginalis [7]) | weed suppression rate, Scirpus juncoides (Scirpus juncoides [8]) | herbicidal effect (weed suppression rate), Amaranthus viridis (Amaranthus viridis [9]) | herbicidal effect (weed suppression rate), Chenopodium album (Chenopodium album [10]) | herbicidal effect (weed suppression rate), Echinochloa crus-galli (Echinochloa crus-galli [11]) | herbicidal effect (weed suppression rate), Crabgrass (crabgrass [12]) | herbicidal effect (weed suppression rate), Amaranthus viridis (Amaranthus viridis [13]) | herbicidal effect (weed suppression rate), Chenopodium album (Chenopodium album [14]) | herbicidal effect (weed suppression rate), Echinochloa crus-galli (Echinochloa crus-galli [15]) | herbicidal effect (weed suppression rate), Crabgrass (crabgrass [16])
1 | CC(C)N(C(=O)n1ncn(S(=O)(=O)C2CC2)c1=O)c1cccc(F)c1F [Compound 1-198] | 100% | 100% | 100% | 100% | 100% | 100% | 100% | 80% | 100% | 100% | 100% | 100% | 80% | 80% | 100% | 100%
2 | CC(C)N(C(=O)n1ncn(S(=O)(=O)C2CC2)c1=O)c1ccc(C(F)(F)F)cc1Cl [Compound 1-229] | 90% | 80% | 80% | 90% | 90% | 80% | 80% | 90% | 90% | 80% | 80% | 90% |  |  |  | 
3 | CC(C)CN(C)S(=O)(=O)n1cnn(C(=O)N(c2ccc(F)cc2F)C(C)C)c1=O [Compound 1-1142] | 100% | 80% | 80% | 80% | 90% | 80% | 80% | 90% | 90% | 80% | 80% | 90% |  |  |  | 
4 | CC(C)N(C(=O)n1ncn(S(=O)(=O)C2CCOCC2)c1=O)c1ccc(F)cc1F [Compound 1-1150] |  |  |  |  |  |  |  |  | 100% | 100% | 100% | 100% | 90% | 80% | 80% | 90%
5 | Cc1ccc(N(C(=O)n2ncn(S(=O)(=O)C3CC3)c2=O)C(C)C)c(F)c1 [Compound 1-221] | 90% | 90% | 90% | 90% | 90% | 80% | 80% | 90% | 90% | 80% | 80% | 90% |  |  |  | 
6 | CCN(CC)S(=O)(=O)n1cnn(C(=O)N(c2ccc(F)cc2F)C(C)C)c1=O [Compound 1-1140] | 90% | 80% | 80% | 90% |  |  |  |  | 90% | 80% | 80% | 90% |  |  |  | 
